According to publication PMC4440816, “Positron Emission Tomography studies with [^11C]PBR28 in the Healthy Rodent Brain: Validating SUV as an Outcome Measure of Neuroinflammation” (PLoS ONE, 2015):
Several values for one entry are separate records, joined by “and”; a condition that tells them apart may be missing. Equal entries are not always repeated.

Tests used:
[1] = target: T1, 18 kD Translocator protein (TSPO) (Mus musculus, UniProt P50637); assay: Small animal PET brain uptake (SUV) and test-retest, mice; type: in vivo, C57BL/6J mice; conditions: for ICC of SUV / TRV of SUV: Mice, SUV 57–63 min, 7-day interval
T1 construct: from tissue; host or cells: brain of living healthy male C57BL/6J mice (in vivo PET)
Description: (§1) The study was divided in two parts. In the first part arterial sampling was performed in four rats to allow for quantification of [^11C]PBR28 binding and comparison with the SUV. In the second part four rats and four mice were used to determine the test-retest variability of the SUV, with a 7-day interval between the scans.
(§2) The animals were anesthetized with isoflurane (induction 4–5% mixed with oxygen and maintenance 1.5–2% mixed with air/oxygen (50/50)) at a flow rate of 1 L/min and a cannula was inserted into the tail vein for the injection of [^11C]PBR28. After the cannulation, the rats were positioned into the nanoScan PET/MRI or nanoScan PET/CT (Mediso Ltd., Budapest, Hungary) in a transaxial position with their heads in the centre of the field of view. A bolus injection of [^11C]PBR28 was given via the canula in the tail vein at start of the PET measurement. The injection was followed by a saline flush. An emission scan of 63 minutes was acquired for all animals. The average injected radioactivity was 23 ± 5 MBq for the rats and 9.9 ± 1.6 MBq for the mice. The injected mass was 0.05 ± 0.03 μg (n = 8) in rats and 0.011 ± 0.011 μg (n = 8) in mice.
(§3) The PET data was acquired in list mode and was reconstructed into 25 timeframes (4x10 s, 4x20 s, 4x60 s, 7x180 s, 6x360 s) with MLEM reconstruction (20 iterations). Image data were not corrected for attenuation or scatter. For each animal a T1-weighted MRI scan (Isotropic FSE sequence, TR/TE: 2000/84.1) was made for anatomical reference.
(§4) The reconstructed dynamic PET measurements were manually aligned with the corresponding MRI scans. The MRI and PET scans were then normalized to the rat or mice brain MRI template available in PMOD (PMOD 3.2 Zurich, Switzerland). Eight regions of interest were defined using the available template in PMOD, i.e. the striatum, hippocampus, hypothalamus, midbrain, thalamus, cerebral cortex, brainstem and cerebellum. Time-activity curves were generated for each region of interest. For all animals the regional brain uptake values were expressed as SUV and were calculated for 57–63 minute after injection, i.e. the last time-frame. The time used for calculating the SUV was based on the tissue-to-plasma ratio obtained from the first part of the study. From 15–50 minutes the tissue-to-plasma ratio is declining, and the estimated equilibrium state is reached at 50–60 minutes after injection. However, it can be beneficial for future studies to use a shorter scan time, i.e. to allow for scanning of more animals per batch of [^11C]PBR28 and to improve counting statistics. The SUV was therefore also calculated for the time-frame of 39–45 minute after injection, In both cases the SUV was calculated according to Eq 1, and it was assumed that 1 cm^3 of brain tissue equals 1 g.
(§5) SUV=tissue activity concentration(Bq/cm3)/injected dose(Bq)/body weight(g) (1)
(§6) For the test-retest study the test-retest variability was calculated using Eq 2.
(§7) TRV=|test value−retest value|/(test value+retest value)/2*100 (2)
(§8) Additionally the […] correlation coefficient (ICC) was calculated as an index of the reliability of the test-retest measurement using Eq 3, where MS = mean sum of squares, BS = between-subjects, WS = within-subjects, and df = degrees of freedom. It combines the information of the difference between and within the test and retest scan. The ICC values were interpreted as follows: 0–0.2 indicated slight agreement, 0.3–0.4 indicated fair agreement, 0.5–0.6 indicated moderate agreement, 0.7–0.8 indicated substantial agreement, and >0.8 indicated almost perfect agreement between the test and retest measures.
(§9) ICC=MSBS−MSWS/MSBS+(dfWS*MSWS) (3)

[2] = target: T2, 18 kD Translocator protein (TSPO) (Rattus norvegicus, UniProt P16257); assay: Small animal PET brain uptake (SUV) and test-retest, rats; type: in vivo, Wistar rats; conditions: for ICC of SUV / TRV of SUV: Rats, SUV 57–63 min, 7-day interval
T2 construct: from tissue; host or cells: brain of living healthy male Wistar rats (in vivo PET)
Description: as §1, §2, §3, §4, §5, §6, §7, §8, §9

TSPO = conditions: cited from earlier work
[3] = Arterial blood and plasma radioactivity (gamma counter); type: in vivo, Wistar rats; conditions: rats; for plasma/blood ratio of radioactivity: average
Description: (§10) Arterial blood sampling was performed during the PET scan in the first group of four rats. In addition to the insertion of the cannula in the tail vein, another cannula was inserted into the femoral artery. For the rats, sixteen arterial blood samples of 0.1 ml were taken for measurement of radioactivity in plasma and blood using a gamma counter. Four samples of 0.5 ml blood were taken for radiometabolite analysis at 4, 20, 40 and 60 minutes after injection.

[4] = Radiometabolite analysis of plasma by radio-HPLC; type: in vivo, Wistar rats
Description: as §10
To determine the percentages of radioactivity in plasma that corresponded to unchanged [^11C]PBR28 and its radioactive metabolites, reversed-phase HPLC was used. Plasma obtained after centrifugation of 0.5 ml blood at 2,000 g for 2–4 min was mixed with acetonitrile (0.35 ml) and centrifuged for 4 min. The acetonitrile extraction ratio was 93.5% ± 1.8% at 4 min, 87.8% ± 0.5% at 20 min, 85.2% ± 1.1% at 40 min and 78.9% ± 2.4% at 60 min. The supernatant was mixed with 2 ml of water and analysed using radio-HPLC. The radio-HPLC system used consisted of an interface module (D-7000; Hitachi: Tokyo, Japan), a L-7100 pump (Hitachi), an injector (model 7125, with a 5.0-mL loop; Rheodyne: Cotati, USA) equipped with a μ-Bondapak C18 column (300 x 7.8 mm, […]; Waters: New England, USA), and an ultraviolet absorption detector (L-7400, 254 nm; Hitachi) in series with a 150TR; Packard (housed in a shield of 50 mm thick lead) equipped with a 550 μL flow cell. Acetonitrile (A) and ammonium formate (100 mM) (B) were used as the mobile phase at 6.0 mL/min, according to the following gradient: 0–4 min (A/B), 40:60 → 80:20 v/v; 4.1–6 min(A/B), 80:20 v/v; 8 min (A/B), 40:60 v/v. Peaks for radioactive compounds eluting from the column were integrated and their areas were expressed as a percentage of the sum of the areas of all detected radioactive compounds (decay-corrected to the time of injection on the HPLC).

[5] = target: T2, 18 kD Translocator protein (TSPO); assay: Dynamic PET with arterial sampling; VT by 2-TCM and Logan graphical analysis, compared with SUV; type: in vivo, Wistar rats; conditions: for VT 2-TCM / VT Logan: n = 3; for VT Logan: t* = 21 min
Description: as §1, §2, §3, §10, §4, §5
For the first groups, the arterial samples and percentage of metabolites were used to determine the metabolite corrected plasma-input function. Two-tissue compartment modelling (2-TCM) and Logan graphical analysis were used to calculate the volume of distribution (VT), using the metabolite corrected plasma curve as input. For the Logan analysis data was fitted from 21 minutes after injection (t* = 21 min).

[6] = rats, 4 minutes after injection
[7] = rats, eight brain regions, SUV 57–63 min

CC(=O)N(Cc1ccccc1O[11CH3])c1ccc(Oc2ccccc2)nc1 [[^11C]PBR28, N-acetyl-N-(2-[^11C]methoxybenzyl)-2-phenoxy-5-pyridinamine]
ICC of SUV ([1]; Brainstem): 0.31 | TRV of SUV ([1]; Brainstem): 13.2 | ICC of SUV ([1]; Cerebellum): 0.29 | TRV of SUV ([1]; Cerebellum): 13.7 | TRV of SUV ([1]; Cerebral cortex): 13.4 | ICC of SUV ([1]; Hippocampus): 0.32 | TRV of SUV ([1]; Hippocampus): 6.9 ± 4.7 and 6.9 | ICC of SUV ([1]; Hypothalamus): 0.01 | TRV of SUV ([1]; Hypothalamus): 23.0 | ICC of SUV ([1]; Midbrain): 0.02 | TRV of SUV ([1]; Midbrain): 15.1 | TRV of SUV ([1]; Striatum): 23.6 ± 15.6 and 23.6 | ICC of SUV ([1]; Thalamus): 0.71 | TRV of SUV ([1]; Thalamus): 7.6 | time of maximum total brain uptake (SUV) after injection ([1]; mice, i.v. bolus): around 1 min | ICC of SUV ([2]; Brainstem): 0.58 | TRV of SUV ([2]; Brainstem): 17.7 | ICC of SUV ([2]; Cerebellum): 0.72 | TRV of SUV ([2]; Cerebellum): 11.5 | ICC of SUV ([2]; Cerebral cortex): 0.81 | TRV of SUV ([2]; Cerebral cortex): 16.7 | ICC of SUV ([2]; Hippocampus): 0.88 | TRV of SUV ([2]; Hippocampus): 7.7 ± 3.5 and 7.7 | ICC of SUV ([2]; Hypothalamus): 0.59 | TRV of SUV ([2]; Hypothalamus): 20.4 ± 15.4 and 20.4 | ICC of SUV ([2]; Midbrain): 0.86 | TRV of SUV ([2]; Midbrain): 12.3 | ICC of SUV ([2]; Striatum): 0.69 | TRV of SUV ([2]; Striatum): 13.6 | ICC of SUV ([2]; Thalamus): 0.71 | TRV of SUV ([2]; Thalamus): 13.7 | time of maximum total brain uptake (SUV) after injection ([2]; non-sampled rats, i.v. bolus): around 1 min | affinity for the TSPO (TSPO): high affinity | specific binding compared with [^11C]PK11195 (TSPO): higher specific binding | plasma/blood ratio of radioactivity ([3]; 20 seconds after injection): 0.2 | plasma/blood ratio of radioactivity ([3]; 60 minutes after injection): 1.0 | time of peak uptake in blood and plasma after injection ([3]; arterial samples): around 20 seconds | metabolism in rats ([4]; plasma): rapidly metabolized | fraction metabolized [4, 6]: about 60% | parent compound left in plasma [4, 6]: 40.7 ± 9.0% | parent compound left in plasma ([4]; rats, 20 minutes after injection): 8.2 ± 2.6% | parent compound left in plasma ([4]; rats, 40 minutes after injection, n = 1): 3.7% | parent compound left in plasma ([4]; rats, 60 minutes after injection): 2.9 ± 1.5% | VT 2-TCM ([5]; Brainstem, rats): 56.7 | VT Logan ([5]; Brainstem, rats): 49.7 | VT 2-TCM ([5]; Cerebellum, rats): 63.6 | VT Logan ([5]; Cerebellum, rats): 54.0 | VT 2-TCM ([5]; Cerebral cortex, rats): 45.3 | VT Logan ([5]; Cerebral cortex, rats): 41.5 | VT 2-TCM ([5]; Hippocampus, rats): 41.1 | VT Logan ([5]; Hippocampus, rats): 38.7 | VT 2-TCM ([5]; Hypothalamus, rats): 58.3 | VT Logan ([5]; Hypothalamus, rats): 51.3 | VT 2-TCM ([5]; Midbrain, rats): 40.9 | VT Logan ([5]; Midbrain, rats): 36.2 | VT 2-TCM ([5]; Striatum, rats): 37.4 | VT Logan ([5]; Striatum, rats): 34.5 | VT 2-TCM ([5]; Thalamus, rats): 35.8 | VT Logan ([5]; Thalamus, rats): 34.2 | SUV of sampled rats higher than SUV of non-sampled rats ([5]; data not shown): about 30% | total (whole) brain VT, Logan analysis ([5]; rats, average): 42.9 ± 1.7 and 43.1 | total brain VT, 2-TCM ([5]; rats, average): 47.3 | correlation (r^2) between average VT (2-TCM) and average SUV [5, 7]: 0.92 | correlation (r^2) between average VT (Logan) and average SUV [5, 7]: 0.94

CCC(C)N([11CH3])C(=O)c1cc2ccccc2c(-c2ccccc2Cl)n1 (centres unmarked) [[^11C]PK11195]
non-specific binding (TSPO): high level of non-specific binding
